Assay results: patent US8513232B2, “Substituted spirocyclic piperidine derivatives as histamine-3 (H3) receptor ligands” (Cephalon, Inc., priority 2008, dated 2013)

Assays:
[1] = biological target: T1, human H3 receptor (Homo sapiens, UniProt Q9Y5N1); experiment: Human H3 radioligand binding ([3H]-N-alpha-methylhistamine, SPA); details: human H3 binding, Table D; read-out: Human H3 Ki
T1 construct: expressed in transfected cells
In short: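 SPA competition binding on membranes from CHO cells stably expressing human H3 receptor (10 μg protein/well) with ~1 nM [3H]-N-alpha-methylhistamine and compound at 0.01 nM-30 μM. Incubation 4 h at room temperature in 50 mM Tris-HCl pH 7.4, 5 mM MgCl2, 0.1% BSA; non-specific binding defined with 10 μM clobenpropit.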

[2] = biological target: T2, rat histamine H3 receptor (Rattus norvegicus, UniProt Q9QYN8); experiment: Rat H3 radioligand binding ([3H]-N-alpha-methylhistamine, SPA); details: rat H3 binding, Table D; read-out: Rat H3 Ki
T2 construct: encoding the entire 445-amino-acid rat histamine H3 receptor; expressed in transfected cells; membrane preparation
T2 sequence (Q9QYN8 whole entry): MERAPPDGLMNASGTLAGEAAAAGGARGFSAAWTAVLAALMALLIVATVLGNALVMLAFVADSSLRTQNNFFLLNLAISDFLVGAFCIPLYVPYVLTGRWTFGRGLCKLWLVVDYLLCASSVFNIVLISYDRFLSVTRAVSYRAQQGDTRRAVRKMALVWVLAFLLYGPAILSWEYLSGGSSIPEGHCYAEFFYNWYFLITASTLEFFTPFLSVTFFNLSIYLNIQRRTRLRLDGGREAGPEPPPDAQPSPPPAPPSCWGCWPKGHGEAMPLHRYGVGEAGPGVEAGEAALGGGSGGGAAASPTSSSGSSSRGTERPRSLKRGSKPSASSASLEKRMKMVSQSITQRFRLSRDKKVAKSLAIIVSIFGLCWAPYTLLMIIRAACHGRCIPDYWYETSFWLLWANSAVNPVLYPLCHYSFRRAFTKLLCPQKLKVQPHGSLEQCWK
In short: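 Membranes from CHO-A3 cells stably expressing full-length rat H3 receptor (10 μg protein/well) incubated 4 h at room temperature, protected from light, with ~1 nM [3H]-N-alpha-methylhistamine and compound (0.01 nM-30 μM) in 50 mM Tris HCl pH 7.4, 5 mM MgCl2, 0.1% BSA. Binding read by SPA; 10 μM clobenpropit defined non-specific binding.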

T1 sequence (Q9Y5N1 whole entry): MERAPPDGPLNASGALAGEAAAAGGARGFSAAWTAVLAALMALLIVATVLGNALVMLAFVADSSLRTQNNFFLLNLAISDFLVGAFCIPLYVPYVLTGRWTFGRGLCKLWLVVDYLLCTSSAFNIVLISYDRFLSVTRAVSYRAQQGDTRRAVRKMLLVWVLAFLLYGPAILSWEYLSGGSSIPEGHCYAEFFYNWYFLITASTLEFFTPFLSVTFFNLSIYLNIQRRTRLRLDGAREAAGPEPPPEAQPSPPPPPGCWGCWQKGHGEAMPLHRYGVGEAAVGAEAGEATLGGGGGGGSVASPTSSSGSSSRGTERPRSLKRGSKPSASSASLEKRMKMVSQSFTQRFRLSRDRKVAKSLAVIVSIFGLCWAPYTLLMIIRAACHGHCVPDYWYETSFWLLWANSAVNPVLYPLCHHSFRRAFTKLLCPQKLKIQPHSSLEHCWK

Ki [1]	Ki [2]	melting point	Compound
< 200 nM	< 200 nM	191 to 193 °C	Cc1[nH]c(=O)ccc1-c1ccc2c(c1)COC1(CCN(C3CCC3)CC1)O2 [Example 736]
< 200 nM	< 200 nM	125 to 127 °C	O=c1ccc(-c2ccc3c(c2)COC2(CCN(C4CCC4)CC2)O3)cn1C(F)F [Example 737]
< 200 nM	< 200 nM	103 to 106 °C	Cc1noc(C)c1C(=O)N1CCN(c2ccc3c(c2)COC2(CCN(C4CCC4)CC2)O3)C(=O)C1 [Example 738]
< 200 nM	< 200 nM	146 to 148 °C	CCC(=O)N1CCN(c2ccc3c(c2)COC2(CCN(C4CCC4)CC2)O3)C(=O)C1 [Example 739]
< 200 nM	< 200 nM	107 to 109 °C	Cn1nccc1-c1ccc2c(c1)COC1(CCN(C3CCC3)CC1)O2 [Example 740]
< 200 nM	< 200 nM	212 to 214 °C	COc1cc(-c2ccc3c(c2)COC2(CCN(C4CCC4)CC2)O3)ccc1C(N)=O [Example 742]
< 200 nM	< 200 nM	267 to 269 °C	NC(=O)c1ccc(-c2ccc3c(c2)COC2(CCN(C4CCC4)CC2)O3)cc1O [Example 743]
< 200 nM	< 200 nM	197 to 199 °C	Cc1ncccc1-c1ccc2c(c1)COC1(CCN(C3CCC3)CC1)O2 [Example 744]
< 200 nM	< 200 nM	200 to 202 °C	Cc1ccncc1-c1ccc2c(c1)COC1(CCN(C3CCC3)CC1)O2 [Example 745]
< 200 nM	< 200 nM	61 to 63 °C	COc1nc(C)ccc1-c1ccc2c(c1)COC1(CCN(C3CCC3)CC1)O2 [Example 746]
< 200 nM	< 200 nM	210 to 212 °C	COc1ncccc1-c1ccc2c(c1)COC1(CCN(C3CCC3)CC1)O2 [Example 747]
< 200 nM	< 200 nM	190 to 192 °C	Cc1ccc(-c2ccc3c(c2)COC2(CCN(C4CCC4)CC2)O3)c(C)n1 [Example 748]
< 200 nM	< 200 nM	58 to 60 °C	COc1ccncc1-c1ccc2c(c1)COC1(CCN(C3CCC3)CC1)O2 [Example 749]
< 200 nM	< 200 nM	205 to 207 °C	c1cc2c(cc1-c1cn[nH]c1)COC1(CCN(C3CCC3)CC1)O2 [Example 750]
< 200 nM	< 200 nM	156 to 158 °C	Cc1cc(C(N)=O)cc(C)c1-c1ccc2c(c1)COC1(CCN(C3CCC3)CC1)O2 [Example 751]
< 200 nM	< 200 nM	102 to 103 °C	Cc1cnc(C)c(-c2ccc3c(c2)COC2(CCN(C4CCC4)CC2)O3)n1 [Example 752]
200 to 1000 nM	200 to 1000 nM	190 to 192 °C	FC(F)(F)c1ncccc1-c1ccc2c(c1)COC1(CCN(C3CCC3)CC1)O2 [Example 753]
< 200 nM	< 200 nM	135 to 136 °C	COc1cc(-c2ccc3c(c2)COC2(CCN(C4CCC4)CC2)O3)c(F)cn1 [Example 754]
< 200 nM	< 200 nM	60 to 62 °C	Cc1cc(=O)n(CC(F)(F)F)cc1-c1ccc2c(c1)COC1(CCN(C3CCC3)CC1)O2 [Example 755]
< 200 nM	200 to 1000 nM	58 to 60 °C	Cc1cccc(C)c1-c1ccc2c(c1)COC1(CCN(C3CCC3)CC1)O2 [Example 756]
< 200 nM	< 200 nM	158 to 160 °C	c1ccn2ncc(-c3ccc4c(c3)COC3(CCN(C5CCC5)CC3)O4)c2c1 [Example 757]
< 200 nM	< 200 nM	218 to 220 °C	CC(C)n1ccc(-c2ccc3c(c2)COC2(CCN(C4CCC4)CC2)O3)cc1=O [Example 758]
